Results taken from patent publication US20220281902A1, “MIT[…] IMPROVE METABOLIC SYNDROME DURING AGING” (The Board of Trustees of the Leland Stanford Junior …, priority 2019, published 2022).

Assays:
[1] = Long-term oral administration in drinking water, tolerability; type: in vivo, C57BL/6 mice
Procedure: (§1) Animal experimentation. Male C57BL/6 mice (Shanghai SLAC Laboratory animal Co. Ltd) were group-housed in a barrier facility with 12-hr light/12-hr dark cycles. All mice received a regular chow diet ad libitum (PicoLab 5053 Rodent Diet 20; Lab Diets) except for HFD (40-60%) and CR models. The compound was then administered in drinking water ad libitum at either 90-100 or 100-120 mg/kg/day, based on the previously measured water consumption.
The C57BL/6 mice were maintained on a standard purified mouse diet (PicoLab 5053 Rodent Diet 20; Lab Diets) until they reached 2 months of age when the treatments started. […] Body weights were measured weekly at the same time each week. Food and water intake were measured once every month for 3-6 consecutive days at the same time each month. Water consumption was measured for 2 weeks prior to the start of administration. Compound was generated and modified for better permeability in to mitochondria, evaluated by HPLC, was 96%-97%. […] Aliquots were collected from each batch and measured by HPLC to confirm stability of the compound. […] Rectal body temperature was measured monthly, as described previously. Whole blood samples, and histopathology were analyzed after 14 months of treatment. […]

[2] = molecular target: T1, cytochrome c oxidase (CcO) (Mus musculus, UniProt P00397); assay: CcO activity in liver mitochondria of treated mice; type: in vivo
T1 construct: Mouse livers were extracted, and liver mitochondria were obtained using a mitochondria isolation kit; from tissue; host or cells: liver mitochondria of treated and control C57BL/6 mice, isolated with a Sigma-Aldrich mitochondria isolation kit; activity kit Sigma-Aldrich CYTOCOX1
Procedure: Measurement of CcO activity in liver mitochondria. Mouse livers were extracted, and liver mitochondria were obtained using a mitochondria isolation kit (Sigma-Aldrich). CcO activity in liver mitochondria was measured using a cytochrome c oxidase assay kit (Sigma-Aldrich, CYTOCOX1, USA.

[3] = tested on: PGC-1α, NRF1, SIRT1, Atg5, PINK1, Parkin transcripts; assay: qPCR of mitochondriogenesis transcripts and mitophagy markers; type: in vivo, mouse
Procedure: (§2) Gene expression & RT qPCR Analyses. Total RNA was isolated using a commercially available kit (OMEGA bio-tek, R6812-02) according to the manufacturer's instructions. cDNA was generated using the PrimeScript RT reagent kit (TAKARA, RR047A). Gene expression were determined by qPCR as described in the product manual. The analysis was evaluated by Bio-Rad Real-Time System (CFX Connect™).
(§3) RNAs from 10 mice (5 treated and 5 Ctrl.) VF fat or livers were isolated by using omega Bio-Tek reagents, and cDNA was transcribed by (TAKARA). qPCR was then performed by using iQ SYBR Green mastermix bioscience on a CFX96 Real-Time System/C1000 Thermal Cycler (Bio-Rad).

[4] = Body weight variations on high fat diet (HFD, 60% fat); type: in vivo, C57BL/6 mice; conditions: for body weight gain on HFD: after 8 weeks HFD; for BW contrast of treated vs control: end of 8-week HFD
Procedure: as §1
The C57BL/6 mice were maintained on a standard purified mouse diet (PicoLab 5053 Rodent Diet 20; Lab Diets) until they reached 2 months of age when the treatments started. The CR animals were subjected to a lifelong restriction on PicoLab 5053 Rodent Diet 20; Lab Diets, starting at 12 weeks of age, with a daily food allotment of 60% of that eaten by the ad lib animals. Besides CR animals, the C57BL/6 groups in this study were fed the standard high fat diet (HFD; 60 or 40% fat). Body weights were measured weekly at the same time each week. Food and water intake were measured once every month for 3-6 consecutive days at the same time each month. Water consumption was measured for 2 weeks prior to the start of administration. Compound was generated and modified for better permeability in to mitochondria, evaluated by HPLC, was 96%-97%. The administration began at 8 weeks of age and continued for 16 months, until they became 18-month-old. The drug solution was prepared weekly in small batches by dissolving the compound into autoclaved water at the respective doses and filtering sterilely. Aliquots were collected from each batch and measured by HPLC to confirm stability of the compound. Water bottles and cages were changed twice weekly. Fed and fasted blood samples were collected monthly at the same time each month from tail and used for glucose, insulin, blood cell counts, lipid analysis using assay kits (Robio, China) and HbA1C assay kit (Crystal chem, USA) following the manufacturer protocol. IPGTTs and ITTs were conducted throughout morning and early afternoon after fasting for 16-18 hrs. and 4 hrs., respectively, once before start of treatment administration began and every 3 months thereafter. Rectal body temperature was measured monthly, as described previously. Whole blood samples, and histopathology were analyzed after 14 months of treatment. Tissue samples were collected after 10-14 months from mice, sacrificed and used for WB and qPCR microarray, and other analyses. All animal studies were approved by the Shanghai Jiao Tong University Animal Studies Committee and were in accordance with NIH guidelines. (Number of mice; SD=30, HFD=10, CR=20).

visceral fat adipocytes = assay: Histological analysis of white adipocyte size in visceral fat (toluidine blue O); type: in vivo, mouse
Procedure: Fluorescent microscopy. Adipose tissue was harvested and fixed in 4% paraformaldehyde (SigmaP6148). Adipocyte size was measured by staining for toluidine blue O in 5-20 μm-thick sections, paraffin embedded (Cell Signalling Technology, Tissue-Tek O.C.T.). adipocyte differentiations assessed by Oil Red 0 staining.

[5] = tested on: ASC1, Wdnm1-like, FGF-21, PGC-1α transcripts; assay: qPCR of adipogenesis regulators and white fat inducing transcripts in visceral fat; type: in vivo, mouse
Procedure: as §2, §3

3T3-L1 pre-adipocytes = assay: In vitro adipocyte differentiation (Oil Red O, protein blotting); type: cell-based
AMPK, FOXO1, SIRT3 = assay: qPCR and immunoblotting of hepatic glucose metabolism and longevity markers; type: in vivo, mouse
Procedure: Immunoblotting analyses. Western blot analyses carried out in mouse livers, heart and adipose tissues collected from aged mice after treatments. Proteins (40 μg) were separated by electrophoresis on a sodium dodecyl sulfate (SDS) 4-20% polyacrylamide gel under reducing conditions. Membranes (Amersham Hybond PVDF, Germany) were probed overnight at 4° C. using Total OX-OPHOS Rodent cocktail (ab110413, USA), Complex IV, AMPK γ1, PGC-1α and Pparγ, FOXO1, TNF-α, IL-6 (USA, abCAM) and then incubated with polyclonal Goat anti-mouse IgG H&R (1:2000, ab6789, USA) in blocking buffer for 2 h at room temperature. To assure equal loading and/or to normalize protein content, the membrane blots were incubated with mouse anti-β-actin monoclonal antibody (mAbcam8227). Proteins were visualized using a chemiluminescence ECL Western blotting detection reagent (Bio-rad, USA). Quantification of protein was performed by chemiluminescence blot scanning (Quantity One™ version 4.6.3. Bio Rad).
as §2, §3

[6] = liver, 12- and 16-month chronic treatment
[7] = liver, 14 months treatment (FIG. 6A)

Compound: Cc1ncsc1CCOC(=O)C[P+](c1ccccc1)(c1ccccc1)c1ccccc1.[Br-] [HG1a-1, (2-(2-(4-Methylthiazol-5-yl)Ethoxy)-2-Oxoethyl) Triphenylphosphonium Bromide]
- tolerability of long-term regulated mitochondrial inhibition ([1]; 18 month long treatment): well-tolerated without any deleterious effect
- mortality due to oral administration ([1]; oral, 18-20 months): no mice died
- CcO inhibition activity ([2]; 2 month old mice): 67%
- CcO function higher than controls of the same model ([2]; 12-month-long treated mice): about 20%
- CcO function vs same age subjects receiving a single dose ([2]; 12-month-long treated mice): one-fold greater
- CcO inhibition activity ([2]; 14 month old mice): 65%
- Atg5 transcript level ([3]; adipose tissue): enhancement
- Atg5 transcript level [3, 6]: noticeable upgrade
- PINK1 transcript level [3, 6]: noticeable upgrade
- Parkin transcript level [3, 6]: noticeable upgrade
- SIRT1 transcript level ([3]; liver, longer course of treatment): significant enhancement
- NRF1 transcript level ([3]; livers of aged mice): increased notably
- PGC-1α transcript level ([3]; livers of aged mice): increased notably
- BW gain on HFD ([4]; 14 month old mice already treated for 12 months, 8 week HFD): resisted the BW gain with HFD until 5 weeks
- body weight gain on HFD ([4]; aged group (12 month old)): 12%
- BW contrast of treated vs control ([4]; aged group): 13%
- body weight gain on HFD ([4]; younger group (12 week old)): 18%
- BW contrast of treated vs control ([4]; younger group): 2-4%
- visceral fat adipocyte size and cell perimeter (visceral fat adipocytes; 5 month old treated mice): minor changes
- adipocyte shrinkage in size and perimeter compared to control (visceral fat adipocytes; 12 month old treated mice): 3 fold
- ASC1 transcript decrease vs control ([5]; 14 months of treatment): > 9 fold
- FGF-21 transcript ([5]; 14 months of treatment): remained unchanged
- Wdnm1-like transcript decrease vs control ([5]; 14 months of treatment): 30 fold
- PGC-1α transcript ([5]; aged mice): increased
- adipocyte differentiation (3T3-L1 pre-adipocytes; 3T3-L1, up to 14 days): poorly differentiated, immature adipocytes
- protein abundance of Pparγ (3T3-L1 pre-adipocytes; 3T3-L1 cells): significant reduction
- APMK amplified (AMPK, FOXO1, SIRT3; [7]): 5 fold
- FOXO1 amplified (AMPK, FOXO1, SIRT3; [7]): 3 fold
- SIRT3 amplified (AMPK, FOXO1, SIRT3; [7]): one-fold
- enhanced deacetylation of FoxO-1 (AMPK, FOXO1, SIRT3; livers of treated mice): 3 fold
- relative levels of phosphorylated AMPK increased (AMPK, FOXO1, SIRT3; livers of treated mice): 5 fold
- SIRT-3 level (AMPK, FOXO1, SIRT3; treated group (FIG. 6A)): marked upgrade
